According to the pKa sets of Baltruschat and Czodrowski (2020):
Several values for one entry are separate records, joined by “and”; a condition that tells them apart may be missing. Identical values can stand only once.

details: acidic group

SMILES | pKa
OCO | 12.8
CC(C#N)(CC(=O)O)c1ccccc1 (stereo unspecified) | 3.99
COc1c(C(=O)O)oc2ccccc12 | 3.7
Cc1cc(C)[nH]n1 | 15
Cc1cc(C)c(C(=O)C(=O)O)c(C)c1 | 1.34
CC(C)C(N)C(N)=O (stereo unspecified) | 8
COc1ccc(S(=O)(=O)Nc2ccccc2)cc1 | 8.66
CCc1ccc(C(C)C)cc1O | 10.6
N#CC(c1ccccc1)c1ccc([N+](=O)[O-])cc1 (stereo unspecified) | 10.9
O=c1c(O)c1-c1ccccc1 | 2.01
COc1cccc([N+](=O)[O-])c1O | 6.74
CC(=O)CC(=O)Nc1ccc(C)cc1 | 10.2
Cc1cccc2oc(=O)cc(O)c12 | 4.2
CCS(=O)O | 2.27
O=C([O-])[C@@H]1CC[C@@H](C(=O)O)[Se][Se]1 | 3.67
Cc1nnc(NS(=O)(=O)c2ccc(O)cc2)s1 | 5.37
C[NH+](C)Cc1cc(Br)ccc1O | 7.58
NC(Cc1c[nH]c(=S)[nH]1)C(=O)[O-] (stereo unspecified) | 11.4
CCC(C(C)=O)C(C)=O | 11.3
Cc1c(O)cncc1C1CCCCC1 | 10
O/N=C/c1ccc(O)cc1O | 8.05
CCNc1ncnc2[nH]ncc12 | 10.9
NC1=[NH+][C@H]2C[C@@H](N1)[NH2+][C@@H]2C(=O)O | 1.3
Cc1cccc(C(=O)O)c1Br | 2.9
O=C(O)C#Cc1ccccc1 | 2.26
O=CCCCC(=O)O | 5.02

SMILES | pKa
O=C(O)c1cccc([N+](=O)[O-])c1C(=O)c1ccccc1 | 2.87
O/C(=C/c1cc[nH+]cc1)c1ccccc1 | 4.19
CC(O)[C@@H]1C[NH2+][C@H](C(=O)O)[C@H]1CC(=O)O (stereo partly specified) | 2.94
CN(C)Cc1cc(CC(C)(C)C)ccc1O | 11.5
Cn1c(=O)c2cn[nH]c2n(C)c1=O | 9.26
NC(=O)[C@H](N)[C@H](O)C(=O)O | 2.31
S=C(Nc1ccccc1)c1ccccc1 | 10.9
C[n+]1ccc2c(O)cccc2c1 | 6.9
O=Cc1cc(Cl)ccc1O | 7.4
Cc1cc(C2(c3ccc(O)c(C)c3)OS(=O)(=O)c3c(Br)c(Br)c(Br)c(Br)c32)ccc1O | 7.53
Cc1nc2c(n1C)C(=O)c1[nH]c(=O)[nH]c(=O)c1C2=O | 5.82
CCCC[NH2+]CCC(=O)O | 3.57
CC(C)OO | 12.1
c1coc(CSc2ncnc3nc[nH]c23)c1 | 8.42
Oc1c(Br)cccc1Br | 6.6
CC(C)(C)CCCCc1ccc(O)cc1 | 11.2
C[n+]1c2ccccc2cc2ccc(N)cc21 | 11.8
Cc1c(C)c(O)c(C)c(C)c1[O-] | 12.8
COc1ccc(/C=N/O)cc1 | 11
Cc1nsc(S)n1 | 5.18
[NH3+]C(Cc1n[nH]c2ccccc12)C(=O)O (stereo unspecified) | 2.2
Cc1cccc2ccc(O)cc12 | 9.42
S=C(S)NC1CCCCC1 | 2.95
Cc1cc([N+](=O)[O-])ccc1C(=O)O | 2.91
COc1ccccc1/C=C/C=N/O | 10.8
CCCCOc1ccc(C(=O)O)cc1 | 4.48

SMILES | pKa
Oc1cc2ccccc2cc1C1=[NH+]CCN1 | 7.01
O=C(O)CCCC1CCCCC1 | 4.95
O=C(O)C12CCC(O)(CC1)CC2 | 6.33
O=C(O)c1ccc([N+](=O)[O-])c2cccnc12 | 1.41
O[n+]1c2ccccc2nc2ccccc21 | 1.12
CC(=O)CC(=O)c1ccc[se]1 | 8.55
Cc1cccc(/C=C/C(=O)O)c1 | 4.44
O/N=C1/CCCC(=N\O)/C1=N/O | 8.21 and 8.12
Nc1cccc[n+]1O | 2.67
Ic1ccc(-c2nnn[nH]2)cc1 | 3.88
CC(=O)c1ccccc1NN=C1C(=O)CC(C)(C)CC1=O | 10.5
[NH3+]Cc1nnn[nH]1 | 2.62
c1ccc(-c2cn[nH]c2)cc1 | 13.6
COC(=O)[n+]1ccc(N)cc1 | 9.15
CC(=O)NC(CS)C(=O)[O-] (stereo unspecified) | 9.62
O/N=C/c1ccc(O)cc1 | 8.78
C/C=C/C=C/C(=O)O | 4.53
CC(=O)C(C=O)C(C)=O | 4.6
[NH3+]CC(=O)O | 2.36
NC(=O)Nc1ncnc2nc[nH]c12 | 9.95
O=[N+]([O-])c1ccccc1[Se]O | 10.5
O=S(=O)(Nc1ncc(Cl)cn1)c1ccc(O)cc1 | 5.59
Cc1ccccc1C(=O)O | 3.92
O=C(O)CC(c1[nH]cc[nH+]1)c1[nH]cc[nH+]1 | 2.79
O=C(O)Cc1cccc2ccccc12 | 4.24
Cc1ncc2c(c1O)C(=O)OC2 | 7.05

same assay, conditions: basic group

SMILES | pKa
CCN(CC)CCCC(C)Nc1ccnc2ccc(OC)cc12 (stereo unspecified) | 10.2
NCCc1cnc[nH]1 | 9.4
CN1CCN(C(=O)c2ccccc2)CC1 | 6.78
N[C@@H](Cc1c[nH]c2ccccc12)C(=O)[O-] | 9.31
COc1ccc(OC)c2c1nc(CCl)n2C | 4.1
CC[NH+](CC)CCCC(C)Nc1cc[nH+]c2ccc(OC)cc12 (stereo unspecified) | -7.83
Cc1n[nH]c2c(NCc3ccco3)ncnc12 | 4.84
COc1cc(OC)c(OC)c(C(=O)N[C@H]2C[C@H]3CC[C@@H](C2)N3Cc2ccccc2)c1 | 8.84
Cc1cc(C)[nH]n1 | 4.32
CCOCCNc1cccc(OC)c1 | 3.67
C[NH+](C)CCC/N=C(\c1ccccc1)c1cccc2ccccc12 | 4.16
COc1ccc(N)cc1C[NH3+] | 5.24
CCCCCCCCCCCCCCCCCCN(CC(O)CC)CC(O)CC (stereo unspecified) | 5.6
CCOC(=O)CCCN | 9.71
CN1CCC=C(C#N)C1 | 6.35
CCOc1ccc2nc(/C=C/c3ccccc3)cc(N)c2c1 | 9.5
c1ccc2c(c1)CCNC2 | 9.48
COc1cc(C)n(-c2ccccc2)n1 | 1.5
CCCCCC(C)N (stereo unspecified) | 11.2
CCCCCCNc1ccccc1 | 5.21
NC(=O)Cc1ccncc1 | 5.08
NCC[n+]1cc(Br)c2ccccc2c1 | 6.71
Cc1nc(NCc2ccco2)c2cn[nH]c2n1 | 4.65
Cc1c[nH]c(C)n1 | 8.39
NC(Cc1c[nH]c(=S)[nH]1)C(=O)[O-] (stereo unspecified) | 8.47

SMILES | pKa
NCCCNCCO | 10.3
C=CC(C)Nc1ccccc1 (stereo unspecified) | 4.57
Cn1ncc2c(NCc3ccccc3)ncnc21 | 3.66
CC(CC(C#N)(c1ccccc1)c1ccccc1)N1CCOCC1 (stereo unspecified) | 6.1
Cc1c(O)cncc1C1CCCCC1 | 5.6
CC(C)[C@H](N)C(=O)[O-] | 9.66
CCc1ccc(/N=N/c2ccc(N(C)C)cc2)cc1CC | 2.58
CCNc1ncnc2[nH]ncc12 | 4.6
CCCCSCCN | 8.37
CC(C)CN(CCS)CC(C)C | 8.23
O=C1NCCN1 | 3.09
OCNc1nc(NCO)nc(NCO)n1 | 4.05
Cc1cccc(C)c1NC(=O)CNCC(C)C | 7.83
CC(=O)Oc1cccc2cccnc12 | 3.3
N=C(Nc1ccccc1)Nc1nc(N)nc(N)n1 | 8.2
CC1(C)CC(NCCO)CC(C)(C)[NH2+]1 | 7.42
COC(=O)c1ccc(N(C)C)cc1 | 2.61
Nc1cccc2[nH]ncc12 | 3.29
CC1=CC(C)=N/C1=C/c1[nH]c(C)cc1C | 8.4
CC(C)S(=O)(=O)n1c(N)nc2ccc(/C(=C/C(N)=O)c3cc(F)ccc3F)cc21 | 3.4
NC(=O)[C@H](N)[C@H](O)C(=O)O | 7.17
c1ccc2c(c1)C1CCN2C1 (stereo unspecified) | 7.1
[S-]CCNCc1ccccc1 | 10.3
C[C@H]([NH3+])C(=O)N[C@@H](Cc1c[nH]cn1)C(=O)[O-] | 6.76
N/C=N/O | 5.05

SMILES | pKa
CNCCNC | 10.1
CC(C)n1cnc2ccccc21 | 5.74
C[C@@H]1CCC[C@H](N(C)C)C1 | 10.5
Nc1ccc(Sc2ccc(N)cc2)cc1 | 4.25
OCc1c[nH]cn1 | 6.38
CNc1ccc[n+](O)c1 | -2.42
CSc1cnc2ccccc2n1 | 0.26
C[NH+]1CCC(NN)CC1 | 5.7
N=C(SCc1ccccc1)c1ccccc1 | 4.43
CN(C)Cc1cccc(O)c1O | 8.01
CCc1c(C)nn(C)c1O | 3.5
CCN(CC)Cc1cc(Br)ccc1[O-] | 10.7
CCn1cc(C#N)c(=O)c2ccccc21 | -1.55
Cc1ccccc1C(=NCC[NH+](C)C)c1ccccc1C | 2.82
Oc1cccc2[nH]ncc12 | 8.65
[NH3+]Cc1ccccn1 | 3.1
CN([NH3+])C(N)=S | 1.2
NNCCOc1ccccc1 | 6.8
CC1CC(=O)CC(=O)O1 (stereo unspecified) | 5.1
C#CCN1CCOCC1 | 5.54
Nc1ccc2[nH]c(Cc3ccccc3)nc2c1 | 6.4
Cc1cccnc1N | 7.24
CC1CCNC(C)(C)C1 (stereo unspecified) | 11.1
CCCN(CCC)c1ccccc1 | 6.13
Nc1ccc(/N=N/c2ccccc2)cc1 | 2.82

SMILES | pKa
O=[N+]([O-])c1cccc2[nH]ncc12 | 0.42
CC1(C)S[C@H]2C(C(=O)[O-])[NH+]=C(CCCC(N)C(=O)[O-])N2C1C(=O)[O-] (stereo partly specified) | 7.6
c1ccc2c(c1)CNCCC[NH2+]Cc1ccccc1OCCCO2 | 7.89
Cc1ccn(-c2ccccn2)n1 | 1.36
Nc1ccccn1 | 6.95
CC1/C(=N\O)C[C@@H]2N=C(c3ccccc3)O[C@@]13[C@@H]1OC(=O)[C@H](C)[C@H]1CC[C@]23C (stereo partly specified) | 4.65
CCCCCCCCCCCCN(CC(O)CC)CC(O)CC (stereo unspecified) | 5.6
Cn1cccc1-c1cccnc1 | 4.73
COc1nc(N)c2ncn([C@H]3O[C@@H](CO)[C@H](O)[C@@H]3O)c2n1 | 3.2
Cc1cc(-c2[nH]cc[nH+]2)nn1C | 2
Cc1[nH]nc(O)c1C(C)C | 3
CN(C)CCCCC(=O)Oc1ccccc1 | 10
NC(=O)Nc1ncnc2nc[nH]c12 | 2.35
N/C(C/C(N)=N/O)=N\O | 4.77
Nc1nnnn1-c1ccc([N+](=O)[O-])cc1 | 0.34
Cc1cccc(C)c1/C(=N/CCC[NH+](C)C)c1ccccc1 | 3.83
NC(=S)C[NH3+] | -8.39
O=Cc1ccc(-c2ncc(-c3ccccc3)o2)cc1 | 0.02
NCCOCCO | 9.43
C#C[C@]1(O)C[C@H](C)N(C)[C@@H]2CCCC[C@H]21 | 9.22
CCNNCC | 7.66
c1ccc2c(c1)N1CC[NH+]2CC1 | 2.5
CNc1nc(NC)c2cn[nH]c2n1 | 6.08
